Holding throughout (type): biochemical
Test [1] addresses T1, TACE (Homo sapiens, UniProt P78536).
T1 construct: made in house; host or cells: mammalian cells or insect cells
Kind of test: TACE inhibition experiment (in vitro).

For test [2], the target named is T2, Human MMP1 (Homo sapiens, UniProt P03956).
T2 construct: purchased Calbiochem 444208
T2 sequence (P03956 100-469): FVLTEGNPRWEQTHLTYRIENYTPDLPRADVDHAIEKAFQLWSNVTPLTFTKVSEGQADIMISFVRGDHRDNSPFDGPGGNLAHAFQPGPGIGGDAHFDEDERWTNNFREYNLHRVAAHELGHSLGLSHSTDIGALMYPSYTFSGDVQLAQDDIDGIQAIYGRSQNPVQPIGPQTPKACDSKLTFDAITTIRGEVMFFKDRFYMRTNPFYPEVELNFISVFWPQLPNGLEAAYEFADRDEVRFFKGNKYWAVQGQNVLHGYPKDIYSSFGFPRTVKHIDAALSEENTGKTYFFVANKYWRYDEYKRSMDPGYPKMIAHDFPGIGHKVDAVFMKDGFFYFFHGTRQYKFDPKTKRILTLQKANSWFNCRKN
Kind of test: MMP1 inhibition experiment. The settings on record: read-out: IC50 value MMP-1.
Description: This enzyme solution in amount of 10 μL was diluted to 90 μL with the assay buffer A, which was added to 90 μL of 20 μM fluorescent substrate (Dnp-Pro-Cha(β-cyclohexylalanyl)-Gly-Cys(Me)-His-Ala-Lys(Nma)-NH2) prepared in the assay buffer B, followed by reaction for 5 hours at 37° C.

Test [3] concerns the target T3, Human MMP2 (Homo sapiens, UniProt P08253).
T3 construct: purchased Calbiochem 444213
T3 sequence (P08253 110-660): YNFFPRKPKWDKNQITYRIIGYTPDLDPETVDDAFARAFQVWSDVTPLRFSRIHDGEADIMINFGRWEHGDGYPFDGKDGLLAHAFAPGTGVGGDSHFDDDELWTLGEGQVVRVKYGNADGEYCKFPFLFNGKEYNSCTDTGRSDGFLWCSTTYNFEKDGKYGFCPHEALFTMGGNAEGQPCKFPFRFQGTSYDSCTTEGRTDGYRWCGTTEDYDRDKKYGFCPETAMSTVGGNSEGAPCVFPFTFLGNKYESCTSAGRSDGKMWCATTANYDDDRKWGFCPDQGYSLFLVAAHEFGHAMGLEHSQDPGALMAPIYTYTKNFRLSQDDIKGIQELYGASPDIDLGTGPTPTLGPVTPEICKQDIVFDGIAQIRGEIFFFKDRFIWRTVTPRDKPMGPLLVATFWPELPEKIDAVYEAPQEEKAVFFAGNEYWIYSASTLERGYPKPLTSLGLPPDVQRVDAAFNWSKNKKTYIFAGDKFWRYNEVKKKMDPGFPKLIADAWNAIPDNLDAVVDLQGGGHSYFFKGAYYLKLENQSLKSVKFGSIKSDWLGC
Kind of test: MMP2 inhibition experiment. Particulars: concentration required for 50% inhibition of enzyme activity; read-out: IC50 value MMP-2.
Description: This enzyme solution in amount of 10 μL was diluted to 90 μL with the assay buffer A, which was added to 90 μL of 20 μM fluorescent substrate (MOCAc((7-methoxycoumarin-4-yl)acetyl)-Pro-Leu-Gly-Leu-A2pr(Dnp)-Ala-Arg-NH2, Peptide Institute, Inc., #3163-v) prepared in the assay buffer B, followed by reaction for 5 hours at 37° C.

Test [4] deals with T4, Human MMP3 (Homo sapiens, UniProt P08254).
T4 construct: purchased Calbiochem 444217
Description: MMP3 inhibition experiment. Particulars: concentration required for 50% inhibition of enzyme activity; read-out: IC50 value MMP-3. A digest of the protocol:
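Fluorescence-quenched substrate NFF-3 (MOCAc/Dnp peptide, 20 μM as prepared) cleaved by 5 ng human MMP3 over 5 hours at 37° C, with inhibition measured from substrate fluorescence.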

In test [5] the target is T5, Human MMP8 (Homo sapiens, UniProt P22894).
T5 construct: purchased Calbiochem 444229
Description: MMP8 inhibition experiment. The settings on record: concentration required for 50% inhibition of enzyme activity; read-out: IC50 value MMP-8. As for the experimental part: MMP inhibition experiment may be carried out using a fluorescent synthetic substrate according to, for example, the methods of Bickett et al. (D. Mark Bickett et al., Anal. Biochem., 1993, 212, 58-64) and Nagase et al. (H. Nagase et al., J. Biol. Chem., 1994, 269, 20952-20957). The methods of inhibition experiments carried out for various MMPs are described below.
Human MMP8 (Calbiochem #444229) in amount of 90 μL (30 ng) was activated by mixing with 10 μL of 10 mM APMA, followed by reaction for 1 hour at 37° C. This enzyme solution in amount of 10 μL was diluted to 90 μL with the assay buffer A, which was added to 90 μL of […] fluorescent substrate (MOCAc-Pro-Leu-Gly-Leu-A2pr(Dnp)-Ala-Arg-NH2, Peptide Institute, Inc., #3163-v) prepared in the assay buffer B, followed by reaction for 5 hours at 37° C.

The target of test [6] is T6, Human MMP9 (Homo sapiens, UniProt P14780).
T6 construct: purchased Calbiochem 444231
Description: MMP9 inhibition experiment. Particulars: read-out: IC50 value MMP-9.
Description: This enzyme solution in amount of 1 μL was diluted to 90 μL with the assay buffer A, which was added to 90 μL of 20 μM fluorescent substrate (Dnp-Pro-Cha-Gly-Cys(Me)-His-Ala-Lys(Nma)-NH2) prepared in the assay buffer B, followed by reaction for 4 hours at 37° C.

Test [7] deals with T7, Human MMP13 (Homo sapiens, UniProt P45452).
T7 construct: purchased Chemicon CC068
Kind of test: MMP13 inhibition experiment. The settings on record: concentration required for 50% inhibition of enzyme activity; read-out: IC50 value MMP-13.
Description: Human MMP13 (Chemicon #CC068) in amount of 90 μL (200 ng) was activated by mixing with 10 μL of 10 mM APMA, followed by reaction for 1 hour at 37° C. This enzyme solution in amount of 0.6 μL was diluted to 90 μL with the assay buffer A, which was added to 90 μL of 20 μM fluorescent substrate (Dnp-Pro-Cha-Gly-Cys(Me)-His-Ala-Lys(Nma)-NH2) prepared in the assay buffer B, followed by reaction for 4 hours at 37° C.

Test [8] has as its target T8, Human MMP14 (Homo sapiens, UniProt P50281).
T8 construct: purchased Biogenesis or Calbiochem 5980-1461 or 475935
Description: MMP14 inhibition experiment. Particulars: concentration required for 50% inhibition of enzyme activity; read-out: IC50 value MMP-14. A digest of the protocol: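 Fluorescence assay: substrate Dnp-Pro-Cha-Gly-Cys(Me)-His-Ala-Lys(Nma)-NH2 (20 μM before equal-volume mixing) incubated at 37° C for 5 hours with 4 ng human MMP14.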

Test [9] concerns the target T9, Human MMP17 (Homo sapiens, UniProt Q9ULZ9).
T9 construct: purchased Calbiochem 475940
T9 sequence (Q9ULZ9 126-300 limits assumed): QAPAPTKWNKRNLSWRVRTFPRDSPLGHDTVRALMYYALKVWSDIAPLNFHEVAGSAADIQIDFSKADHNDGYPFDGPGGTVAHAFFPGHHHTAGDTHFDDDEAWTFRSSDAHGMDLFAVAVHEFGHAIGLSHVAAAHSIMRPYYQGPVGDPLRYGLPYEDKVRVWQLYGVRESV
Kind of test: MMP17 inhibition test. Particulars: concentration required for 50% inhibition of enzyme activity; read-out: IC50 value MMP-17.

[10] abbreviates: concentration required for 50% inhibition of enzyme activity.

Read-outs that look alike come from different tables or passages of the source.

T5 sequence (P22894 101-467): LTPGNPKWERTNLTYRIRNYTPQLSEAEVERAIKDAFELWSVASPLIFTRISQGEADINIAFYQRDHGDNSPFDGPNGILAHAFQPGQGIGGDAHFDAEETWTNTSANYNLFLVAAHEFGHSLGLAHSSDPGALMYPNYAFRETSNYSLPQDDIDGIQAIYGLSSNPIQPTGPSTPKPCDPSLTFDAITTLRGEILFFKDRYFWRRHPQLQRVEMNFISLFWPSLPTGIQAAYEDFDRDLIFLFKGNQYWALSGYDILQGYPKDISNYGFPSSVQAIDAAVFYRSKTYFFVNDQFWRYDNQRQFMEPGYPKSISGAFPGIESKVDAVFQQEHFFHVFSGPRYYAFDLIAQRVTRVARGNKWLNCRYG
T4 sequence (P08254 100-272 limits assumed): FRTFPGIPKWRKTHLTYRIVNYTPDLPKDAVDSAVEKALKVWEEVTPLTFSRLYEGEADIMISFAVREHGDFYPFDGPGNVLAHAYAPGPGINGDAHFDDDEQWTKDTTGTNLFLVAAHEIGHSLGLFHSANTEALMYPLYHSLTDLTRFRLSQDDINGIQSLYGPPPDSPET
T1 sequence (P78536 215-824): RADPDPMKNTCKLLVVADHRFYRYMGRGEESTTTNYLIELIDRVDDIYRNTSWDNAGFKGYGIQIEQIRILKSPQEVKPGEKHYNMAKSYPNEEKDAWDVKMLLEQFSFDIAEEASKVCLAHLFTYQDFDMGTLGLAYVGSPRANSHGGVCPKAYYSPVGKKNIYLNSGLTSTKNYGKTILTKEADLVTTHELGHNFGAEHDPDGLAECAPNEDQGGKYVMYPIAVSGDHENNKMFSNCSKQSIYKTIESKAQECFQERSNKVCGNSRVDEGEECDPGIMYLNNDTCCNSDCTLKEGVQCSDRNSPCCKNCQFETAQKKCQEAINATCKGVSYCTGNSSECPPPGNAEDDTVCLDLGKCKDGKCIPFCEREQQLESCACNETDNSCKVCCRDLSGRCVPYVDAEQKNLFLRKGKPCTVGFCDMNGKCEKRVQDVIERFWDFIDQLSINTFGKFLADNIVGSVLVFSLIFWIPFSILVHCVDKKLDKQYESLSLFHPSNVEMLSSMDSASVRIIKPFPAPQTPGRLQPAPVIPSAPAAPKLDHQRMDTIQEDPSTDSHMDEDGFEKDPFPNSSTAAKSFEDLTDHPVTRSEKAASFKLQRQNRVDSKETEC
T6 sequence (P14780 107-707 limits assumed): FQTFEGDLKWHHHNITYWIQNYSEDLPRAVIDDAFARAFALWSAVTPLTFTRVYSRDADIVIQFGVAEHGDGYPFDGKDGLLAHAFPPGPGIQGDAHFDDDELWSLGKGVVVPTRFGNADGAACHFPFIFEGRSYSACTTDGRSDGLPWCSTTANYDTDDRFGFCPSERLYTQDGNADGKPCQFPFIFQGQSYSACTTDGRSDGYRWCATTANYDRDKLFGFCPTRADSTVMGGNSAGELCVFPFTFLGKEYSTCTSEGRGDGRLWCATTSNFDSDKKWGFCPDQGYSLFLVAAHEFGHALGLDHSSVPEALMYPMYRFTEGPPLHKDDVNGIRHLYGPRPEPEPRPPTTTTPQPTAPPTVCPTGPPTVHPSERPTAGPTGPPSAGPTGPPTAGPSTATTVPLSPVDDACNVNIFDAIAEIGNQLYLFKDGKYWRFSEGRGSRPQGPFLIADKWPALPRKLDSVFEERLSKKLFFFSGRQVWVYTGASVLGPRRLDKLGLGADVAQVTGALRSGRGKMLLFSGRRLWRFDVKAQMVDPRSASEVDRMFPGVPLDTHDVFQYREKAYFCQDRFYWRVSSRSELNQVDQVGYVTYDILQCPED

For orientation: IC50 means the point on the concentration scale where inhibition reaches its midpoint. Turning to `Cc1cc(COc2ccc(S(=O)(=O)CC(C=C3CCSCC3)N(O)C=O)cc2)c2ccccc2n1` (stereo not drawn) [Example I-17, N-Hydroxy-N-{2-[4-(2-methylquinolin-4-ylmethoxy)benzenesulfonyl]-1-(tetrahydrothiopyran-4-ylidenemethyl)ethyl}formamide], the IC50 in test [1] (setting [10]) is 0.003 µM; in test [2], 43 µM; in test [3], 55 µM; in test [4], 10 µM; in [5], more than 100 µM; in test [6] (setting [10]) it was 31 µM. For the same compound, the values for the IC50 in test [7], in [8] and in [9] were 25 µM, 50 µM and 4 µM, respectively.

For the compound `O=CON=C1CCC(=CC(CS(=O)(=O)c2ccc(OCc3ccc4ccccc4n3)cc2)N(O)C=O)CC1` (stereo not drawn) [Example I-85], the IC50 in test [1] is 0.36 µM; in [2], more than 100 µM; in [3], 4.5 µM; in test [4], 50 µM; in test [5] it was 70 µM; in test [6], 56 µM. Moreover, the IC50 in test [7] turned out to be 22 µM; in test [8] it was 60 µM; in test [9] it was 31 µM.

In the case of `Cc1cc(COc2ccc(S(=O)(=O)CC(C=C3CCN(C(=O)C(C)(C)C)CC3)N(O)C=O)cc2)c2ccccc2n1` (stereo not drawn) [Example I-25, N-{1-[1-(2,2-Dimethylpropionyl)piperidin-4-ylidenemethyl]-2-[4-(2-methylquinolin-4-ylmethoxy)benzenesulfonyl]ethyl}-N-hyroxyformamide], the IC50 in test [1] was 0.01 µM; in [2], 40 µM; in test [3], 1.3 µM; in test [4] it was 0.11 µM; in test [5], 5 µM; in test [6], 8 µM. For the same compound, the IC50 in [7] came out at 0.7 µM; in test [8], 20 µM; in [9] it was 0.12 µM.

Consider `Cc1cncc(C(CS(=O)(=O)c2ccc(OCc3cc(C)nc4ccccc34)cc2)N(O)C=O)c1` (stereo not drawn) [Example I-31], for which the IC50 was 0.0028 µM in test [1]; more than 100 µM in test [2]; 50 µM in test [3]; 3.2 µM in test [4]; 62 µM in test [5]; more than 100 µM in test [6]. Moreover, the IC50 was determined as 26 µM in test [7], 90 µM in [8] and 1.8 µM in test [9].

With `COCc1cc(COc2ccc(S(=O)(=O)CC(CC3CCC(=NO)CC3)N(O)C=O)cc2)cc(C)n1` (stereo not drawn) [Example I-122], the half-inhibitory concentration (IC50) in [1] was 0.2 µM; in test [2], more than 100 µM; in test [3] it was 9 µM; in test [4], 21 µM; in test [5], 14 µM; in test [6], more than 100 µM. Also, the IC50 in test [7] was 12 µM; in test [8] it was more than 100 µM; in test [9], 18 µM.

With `COCc1cc(COc2ccc(S(=O)(=O)CC(C=C3CCOCC3)N(O)C=O)cc2)cc(C)n1` (stereo not drawn) [Example I-116], the IC50 was 0.16 µM in test [1]; more than 100 µM in [2]; 26 µM in test [3]; 70 µM in test [4]; 28 µM in test [5]; more than 100 µM in [6]. Also, the IC50 in test [7] is 39 µM; in test [8], more than 100 µM; in test [9], 42 µM.

As to `CC(=O)N1CCC(=CC(CS(=O)(=O)c2ccc(OCc3cc(C)nc4ccccc34)cc2)N(O)C=O)CC1` (stereo not drawn) [Example I-41], the IC50 is 0.0031 µM in test [1]; more than 100 µM in test [2]; 41 µM in test [3]; 4.8 µM in test [4]; 50 µM in test [5]; more than 100 µM in test [6]. Further, the IC50 in test [7] was 50 µM; in test [8], more than 100 µM; in test [9] it was 3.7 µM.

Regarding `Cc1cncc(C(CS(=O)(=O)c2ccc(OCc3cc(C)nc4ccc(C)cc34)cc2)N(O)C=O)c1` (stereo not drawn) [Example I-78], the IC50 was 0.0031 µM in [1]; more than 100 µM in test [2]; 36 µM in test [3]; 2.8 µM in test [4]; 52 µM in test [5]; more than 100 µM in test [6]. Moreover, the half-maximal inhibitory concentration (IC50) in [7] stood at 16 µM; in test [8], 55 µM; in test [9], 3.9 µM.

Consider `Cc1cc(COc2ccc(S(=O)(=O)CC(C3CCC4(CC3)OCCO4)N(O)C=O)cc2)c2ccccc2n1` (stereo not drawn) [Example I-28, N-{1-(1,4-dioxaspiro[4.5]dec-8-yl)-2-[4-(2-methylquinolin-4-ylmethoxy)benzenesulfonyl]ethyl}-N-hydroxyformamide], for which the IC50 is 0.015 µM in [1] (setting [10]); 65 µM in test [2]; 7 µM in test [3]; 0.28 µM in test [4]; 9 µM in test [5]; 40 µM in test [6] (setting [10]). Further, the IC50 in test [7] was found to be 3.3 µM; in test [8] it was 30 µM; in test [9], 0.22 µM.

`COCc1cc(COc2ccc(S(=O)(=O)CC(c3ccccc3C)N(O)C=O)cc2)cc(C)n1` (stereo not drawn) [Example I-117]: the IC50 is 0.62 µM in [1]; more than 100 µM in test [2]; 12 µM in test [3]; 20 µM in test [4]; 20 µM in [5]; more than 100 µM in [6]. The concentration for half-maximal inhibition (IC50) in [7] is 28 µM; in [8] it was more than 100 µM; in [9], 22 µM.

`Cc1ccc(C(CS(=O)(=O)c2ccc(OCc3cc(C)nc4ccccc34)cc2)N(O)C=O)cn1` (stereo not drawn) [Example I-32]: the IC50 in [1] is 0.0025 µM; in [2] it was more than 100 µM; in test [3], 18 µM; in [4] it was 2.7 µM; in [5] it was 22 µM; in test [6], 44 µM. In addition, the IC50 in test [7] was 9 µM; in test [8], 53 µM; in test [9] it was 1.5 µM.

On to `Cc1cc(COc2ccc(S(=O)(=O)CC([C@H]3CSC(=O)N3C)N(O)C=O)cc2)c2ccccc2n1` (stereo partly drawn) [Example I-136], for which the IC50 in test [1] was 0.0065 µM; in [2] it was 48 µM; in test [3] it was 26 µM; in test [4], 2 µM; in test [5], 13 µM; in test [6], 50 µM. For the same compound, the IC50 in test [7] was found to be 26 µM; in test [8], 50 µM; in test [9], 0.62 µM.

The values are drawn from US7511144B2, “Reverse hydroxamic acid derivatives” (Kaken Pharmaceutical Co., Ltd., priority 2001, dated 2009).
